Data reported in patent US20050107289A1, “Anti-microbial peptides and compositions” (priority 2001, published 2005).
Non-standard residues stand in square brackets, D forms with d. Residues, ends and D or L forms follow the SMILES beside them.

Key:
[1] = system: S. aureus (MRSA) ATCC 33591; type: cell-based, Staphylococcus aureus; details: for In Vitro MRSA MIC / S. aureus (MRSA) MIC / MRSA MIC: ATCC 33591; for MRSA (in vitro activity): Table 9, media a: anti-microbial media-3 (AM-3)
Method in brief: (§1)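 Overnight bacterial cultures, diluted 4000 times to roughly 2.5×10^5 cfu/ml, are added to 2-fold peptide dilution series. Peptide series span approximately 400-2 μg/ml as prepared in DMSO/aqueous sucrose, before mixing with inoculum. Testing follows NCCLS M7-A4 broth dilution, chiefly the microdilution format.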

[2] = system: Bacillus cereus ATCC 11778; type: cell-based
Method in brief: as §1

[3] = system: Streptococcus pneumoniae (ATCC 6301); type: cell-based
Method in brief: as §1

[4] = system: vancomycin resistant E. faecium (VREF)(ATCC 51575); test: Mouse peritonitis model, VREF protection; type: in vivo, mice; set-up: PD50 VREF: unit not given here; details: for PD50 VREF: Table 12, male Balb-C mice, IP infection, IP peptide; for In Vivo VREF PD50: Table 13; for protection of mice from VREF infection: single bolus IP dose of appropriate amount, 45-60 min after infection
Description: Vancomycin resistant Enterococcus faecium (VREF) bacteria (ATCC 51575) were grown at 37° C. in 60 mL of Brain Heart Infusion medium (BHI, Difco Laboratories) with agitation for 16 hours to a stationary phase. Cells were collected by centrifugation, washed twice with saline solution and resuspended in 6 mL of saline to a theoretical O.D.650 of 9-10 (determined by taking OD.650 of 10-20 fold diluted samples and correlating it to the original concentration). This suspension was diluted 15 times in a sterilized 5% mucin (Difco) in saline to a concentration of 5-7×10^8 cfu/ml (actual inoculum size was verified by colony counts on agar plates).
Peptides of the invention were tested in mice to ascertain whether they would protect the mice against bacterial infection using procedures similar to those described in N. Frimodt-Moller et al., The Mouse Peritonitis/Sepsis Model, in Zak et al. (eds.) HANDBOOK OF ANIMAL MODELS OF INFECTION 127-37 (Academic Press 1999).
Male Balb-C mice (6 weeks old, approximately 20 g) were used in the study. Staphylococcus aureus MRSA bacteria (ATCC 33591) were grown at 37° C. with agitation for 12 hours to a stationary phase. Cells were collected by centrifugation, washed twice with saline and resuspended to an O.D.650 of 1.4. This suspension was diluted ten times with saline and resuspended to a concentration of 3-5×10^7 cfu/ml. For each peptide five groups of eight mice per group were infected I.P. with 0.5 ml of the above Staphylococcus aureus MRSA preparation (lethal dose). Forty-five minutes to an hour after infection, each group was treated with a different dose of peptide and a control group received vehicle only. Mice were monitored for fourteen days; death was defined as the end point. Median protecting doses (PD50) were calculated following the Reed and Muench method. […] For IV and SQ models peptide was administered immediately after IP infection.

| SMILES | In Vitro MRSA MIC [1] [µg/mL] | S. aureus (MRSA) MIC [1] [µg/mL] | MRSA MIC [1] [µg/mL] | MRSA (in vitro activity) [1] | B. cerius MIC [2] [µg/mL] | S. pneum. MIC [3] [µg/mL] | PD50 E. faecium VREF infection [4] [mg/kg] | PD50 VREF [4] | In Vivo VREF PD50 [4] [mg/kg] | protection of mice from VREF infection [4] |
| --- | --- | --- | --- | --- | --- | --- | --- | --- | --- | --- |
| CC(C)C[C@H]1NC(=O)[C@H](Cc2c[nH]c3ccccc23)NC(=O)[C@@H](CCCNC(=N)N)NC(=O)[C@H](CCC(N)=O)NC(=O)[C@@H](CCCCN)NC(=O)[C@H](Cc2c[nH]c3ccccc23)NC(=O)[C@@H](CC(C)C)NC(=O)[C@H](Cc2c[nH]c3ccccc23)NC1=O [SEQ ID NO:8, cyclo-(D-Lys-Gln-D-Arg-Trp-D-Leu-Trp-D-Leu-Trp)] (cyclo([dK]Q[dR]W[dL]W[dL]W)) | 12 | 6 |  |  |  |  |  |  |  |  |
| CC(C)C[C@H]1NC(=O)[C@H](Cc2c[nH]c3ccccc23)NC(=O)[C@@H](CCCCN)NC(=O)[C@H](CO)NC(=O)[C@@H](CCCCN)NC(=O)[C@H](Cc2c[nH]c3ccccc23)NC(=O)[C@@H](CC(C)C)NC(=O)[C@H](Cc2c[nH]c3ccccc23)NC1=O [SEQ ID NO:12, D-Lys-Ser-D-Lys-Trp-D-Leu-Trp-D-Leu-Trp] (cyclo([dK]S[dK]W[dL]W[dL]W)) | 5 | 5 | 5 | 5 | < 3 | 10 | 5 | 5 | 5 | completely protect |
| CC(C)C[C@H]1NC(=O)[C@H](Cc2c[nH]c3ccccc23)NC(=O)[C@@H](CCCCN)NC(=O)[C@H](CCCNC(=N)N)NC(=O)[C@@H](CCCNC(=N)N)NC(=O)[C@H](Cc2c[nH]c3ccccc23)NC(=O)[C@@H](CC(C)C)NC(=O)[C@H](Cc2c[nH]c3ccccc23)NC1=O [SEQ ID NO:18, cyclo-(D-Arg-Arg-D-Lys-Trp-D-Leu-Trp-D-Leu-Trp)] (cyclo([dR]R[dK]W[dL]W[dL]W)) | 6 | 6 | 5 | 5 | 5 | 5 | 7 | 7 | 7 | completely protect |
